Our source for the GI50 values is patent US8394825B2, “Compound” (Sterix Limited, priority 2007, dated 2013).

The experiment relates to DU145 cells. Description: Antiproliferative assay in DU145 cells, WST-1 cell proliferation assay, 96 hours (GI50). The experiment is classed as cell-based. On the procedure:
Antiproliferative assays. DU145 cells were seeded into 96 well microtiter plates (5000 cells/well) and treated with […] of compounds or with vehicle control. At 96 hours post-treatment, live cell counts were determined by WST-1 cell proliferation assay (Roche, Penzberg, Germany), as per manufacturer's instructions. Viability results were expressed as a percentage of mean control values resulting in the calculation of the 50% growth inhibition (GI50). All experiments were performed in triplicate.
A general note: Tetrazolium dyes change colour on reduction, which living cells bring about.

Setting [1] is: 96 hours post-treatment, triplicate, read-out: DU-145 GI50.
The mark [2] stands for this setting: Homo sapiens, DU-145, 96 hours post-treatment, triplicate.
The mark [3] stands for this setting: 96 hours post-treatment, 50% growth inhibition, read-out: DU-145 GI50.

Where two headings read alike, the source gives them in different places.

Turning to `COc1cc2c(cc1OS(N)(=O)=O)CCN(Cc1cccc(Cl)c1)C2` [compound 101, 2-(3-Chlorobenzyl)-7-methoxy-6-O-sulfamoyl-1,2,3,4-tetrahydroisoquinoline], under setting [1], the GI50 (in general, the concentration giving 50% growth inhibition) was below 10 µM. Still for that read-out and setting: then `COc1cc2c(cc1OS(N)(=O)=O)CCN(Cc1cccc(OC(F)(F)F)c1)C2` [compound 102, 7-Methoxy-2-(3-trifluoromethoxybenzyl)-6-O-sulfamoyl-1,2,3,4-tetrahydroisoquinoline], with below 10 µM.

Take `COc1cc2c(cc1OS(N)(=O)=O)CCN(Cc1cccc(OC(C)C)c1)C2` [compound 104, 2-(3-Isopropoxybenzyl)-7-methoxy-6-O-sulfamoyl-1,2,3,4-tetrahydroisoquinoline]: the GI50 under setting [1] was below 10 µM.

`COc1ccc(C(=O)N2CCc3cc(OCc4ccccc4)ccc3C2)cc1OC` [compound 109, 6-Benzyloxy-2-(3,4-Dimethoxybenzoyl)-1,2,3,4-tetrahydroisoquinoline] had a GI50 under setting [2] of 10 to 50 µM. `COc1cc(OC)cc(C(=O)N2CCc3cc(O)c(OC)cc3C2)c1` [compound 119, 2-(3,5-Dimethoxybenzoyl)-6-hydroxy-7-methoxy-1,2,3,4-tetrahydroisoquinoline] gave a GI50 under setting [2] below 10 µM. Turning to `COc1cc2c(cc1OS(N)(=O)=O)CCN(C(=O)c1ccccc1OC)C2` [compound 122, 7-Methoxy-2-(2-methoxybenzoyl)-6-O-sulfamoyl-1,2,3,4-tetrahydroisoquinoline], the GI50 under setting [1] was in the range of 10 to 50 µM. On the same count and under the same terms, then `COc1cccc(C(=O)N2CCc3cc(OS(N)(=O)=O)c(OC)cc3C2)c1` [compound 123, 7-Methoxy-2-(3-methoxybenzoyl)-6-O-sulfamoyl-1,2,3,4-tetrahydroisoquinoline], with below 10 µM; and `COc1ccc(C(=O)N2CCc3cc(OS(N)(=O)=O)c(OC)cc3C2)cc1` [compound 124, 7-Methoxy-2-(4-methoxybenzoyl)-6-O-sulfamoyl-1,2,3,4-tetrahydroisoquinoline], with below 10 µM; and `COc1cc2c(cc1OS(N)(=O)=O)CCN(C(=O)c1cc(OC)c(OC)c(OC)c1)C2` [compound 127, 7-methoxy-6-O-sulfamoyl-2-(3,4,5-trimethoxybenzoyl)-1,2,3,4-tetrahydroisoquinoline], with below 10 µM. The molecule `COc1cc2c(cc1OCc1ccccc1)CCN(C(=O)c1ccc(C#N)cc1)C2=O` [compound 136, 6-(Benzyloxy)-2-(4-cyanobenzoyl)-7-methoxy-3,4-dihydro-2H-isoquinoline-1-one] came in with a GI50 under setting [2] above 100 µM. As for `COc1ccc(C(=O)N2CCc3cc(OS(N)(=O)=O)c(OC)cc3C2=O)cc1` [compound 147, 2-(4-Methoxybenzoyl)-7-methoxy-6-O-sulfamoyl-3,4-dihydro-2H-isoquinolin-1-one], the GI50 under setting [1] was above 100 µM. For the molecule `COc1cc2c(cc1OS(N)(=O)=O)CCN(C(=O)c1ccccc1OC)C2=O` [compound 148, 7-Methoxy-2-(2-methoxybenzoyl)-6-O-sulfamoyl-3,4-dihydro-2H-isoquinolin-1-one], the GI50 under setting [1] is below 10 µM. On the same count and under the same terms, then `COc1cccc(C(=O)N2CCc3cc(OS(N)(=O)=O)c(OC)cc3C2=O)c1` [compound 149, 7-Methoxy-2-(3-methoxybenzoyl)-6-O-sulfamoyl-3,4-dihydro-2H-isoquinolin-1-one], with below 10 µM; and `COc1cc(OC)cc(C(=O)N2CCc3cc(OS(N)(=O)=O)c(OC)cc3C2=O)c1` [compound 150, 2-(3,5-Dimethoxybenzoyl)-7-methoxy-6-O-sulfamoyl-3,4-dihydro-2H-isoquinolin-1-one], with below 10 µM. On the same count and under the same terms, then `COc1ccc(C(=O)N2CCc3cc(OS(N)(=O)=O)c(OC)cc3C2=O)cc1OC` [compound 151, 2-(3,4-Dimethoxybenzoyl)-7-methoxy-6-O-sulfamoyl-3,4-dihydro-2H-isoquinolin-1-one], with below 10 µM; and `COc1cc2c(cc1OS(N)(=O)=O)CCN(C(=O)c1cc(OC)c(OC)c(OC)c1)C2=O` [compound 152, 7-methoxy-6-O-sulfamoyl-2-(3,4,5-trimethoxybenzoyl)-3,4-dihydro-2H-isoquinolin-1-one], with below 10 µM. The same measure, in the same setting: to `COc1cc2c(cc1OS(N)(=O)=O)CCN(C(=O)c1cccc(C#N)c1)C2=O` [compound 153, 2-(3-Cyanobenzoyl)-7-methoxy-6-O-sulfamoyl-3,4-dihydro-2H-isoquinoline-1-one] belongs 10 to 50 µM. Under setting [2], `COc1ccc(CN2CCc3cc(O[Si](C(C)C)(C(C)C)C(C)C)c(OC)cc3C2=O)cc1` [compound 154, 7-Methoxy-2-(4-methoxybenzyl)-6-(triisopropylsilyloxy)-3,4-dihydro-2H-isoquinolin-1-one] had a GI50 above 100 µM. For the molecule `COc1ccc(CN2CCc3cc(OS(N)(=O)=O)c(OC)cc3C2)cc1` [compound 164, 7-Methoxy-2-(4-methoxybenzyl)-6-O-sulfamoyl-3,4-dihydro-2H-isoquinoline], the 50% growth inhibitory concentration (GI50) under setting [1] was above 100 µM. The same measure, in the same setting: then `COc1ccccc1CN1CCc2cc(OS(N)(=O)=O)c(OC)cc2C1` [compound 165, 7-Methoxy-2-(2-methoxybenzyl)-6-O-sulfamoyl-3,4-dihydro-2H-isoquinoline], with above 100 µM; and `COc1cccc(CN2CCc3cc(OS(N)(=O)=O)c(OC)cc3C2)c1` [compound 166, 7-Methoxy-2-(3-methoxybenzyl)-6-O-sulfamoyl-3,4-dihydro-2H-isoquinoline], with above 100 µM; and `COc1cc(CN2CCc3cc(OS(N)(=O)=O)c(OC)cc3C2=O)cc(OC)c1` [compound 167, 2-(3,5-Dimethoxybenzyl)-7-methoxy-6-O-sulfamoyl-3,4-dihydro-2H-isoquinolin-1-one], with above 100 µM. Turning to `COc1cc2c(cc1OS(N)(=O)=O)CCN(Cc1cc(OC)c(OC)c(OC)c1)C2=O` [compound 168, 7-methoxy-6-O-sulfamoyl-2-(3,4,5-trimethoxybenzyl)-3,4-dihydroisoquinolin-1 (2H)-one], the GI50 under setting [1] was above 100 µM. `COc1cc2c(cc1OCc1ccccc1)CCN(S(=O)(=O)c1cccc(Cl)c1)C2` [compound 173, 6-Benzyloxy-2-(3-chloro-benzenesulfonyl)-7-methoxy-1,2,3,4-tetrahydroisoquinoline] registered a GI50 under setting [2] above 100 µM. The molecule `COc1cc2c(cc1O[Si](C(C)C)(C(C)C)C(C)C)CCN(S(=O)(=O)c1cccc(C#N)c1)C2` [compound 174, 2-(3-Cyano-benzenesulfonyl)-6-triisopropylsilyloxy-7-methoxy-1,2,3,4-tetrahydroisoquinoline] yielded a GI50 under setting [2] above 100 µM.

With `COc1cc2c(cc1OS(N)(=O)=O)CCN(S(=O)(=O)c1cccc(C#N)c1)C2` [compound 187, 2-(3-Cyano-benzenesulfonyl)-7-methoxy-6-O-sulfamoyl-1,2,3,4-tetrahydroisoquinoline], under setting [1], the GI50 was above 100 µM. Same read-out and setting: to `COc1cccc(S(=O)(=O)N2CCc3cc(OS(N)(=O)=O)c(OC)cc3C2)c1` [compound 188, 7-Methoxy-2-(3-methoxy-benzenesulfonyl)-6-O-sulfamoyl-1,2,3,4-tetrahydroisoquinoline] belongs 50 to 100 µM; to `COc1cc2c(cc1OS(N)(=O)=O)CCN(S(=O)(=O)c1cccc(C(F)(F)F)c1)C2` [compound 189, 7-Methoxy-6-O-sulfamoyl-2-(3-trifluoromethyl-benzenesulfonyl)-1,2,3,4-tetrahydroisoquinoline], 10 to 50 µM.

With `COc1cc2c(cc1OS(N)(=O)=O)CCN(S(=O)(=O)c1cccc(Cl)c1)C2` [compound 190, 2-(3-Chloro-benzenesulfonyl)-7-methoxy-6-O-sulfamoyl-1,2,3,4-tetrahydroisoquinoline], under setting [1], the GI50 was 10 to 50 µM.

Turning to `COc1cc2c(cc1OS(N)(=O)=O)CCN(S(=O)(=O)c1cccc(C)c1)C2` [compound 191, 7-Methoxy-6-O-sulfamoyl-2-(toluene-3-sulfonyl)-1,2,3,4-tetrahydroisoquinoline], the 50% growth inhibitory concentration (GI50) under setting [1] was 10 to 50 µM. Same read-out and setting: then `COc1cc2c(cc1OS(N)(=O)=O)CCN(S(=O)(=O)c1cccc(OC(F)(F)F)c1)C2` [compound 192, 7-Methoxy-6-O-sulfamoyl-2-(3-trifluoromethoxy-benzenesulfonyl)-1,2,3,4-tetrahydroisoquinoline], with 50 to 100 µM; and `COc1cc2c(cc1OS(N)(=O)=O)CCN(S(=O)(=O)c1ccccc1C#N)C2` [compound 193, 2-(2-Cyano-benzenesulfonyl)-7-methoxy-6-O-sulfamoyl-1,2,3,4-tetrahydroisoquinoline], with below 10 µM. On the same count and under the same terms, to `COc1cc2c(cc1OS(N)(=O)=O)CCN(S(=O)(=O)c1ccccc1OC)C2` [compound 194, 7-Methoxy-2-(2-methoxy-benzenesulfonyl)-6-O-sulfamoyl-1,2,3,4-tetrahydroisoquinoline] belongs above 100 µM.

On to `COc1ccc(S(=O)(=O)N2CCc3cc(OS(N)(=O)=O)c(OC)cc3C2)cc1` [compound 195, 7-Methoxy-2-(4-methoxy-benzenesulfonyl)-6-O-sulfamoyl-1,2,3,4-tetrahydroisoquinoline], for which the GI50 under setting [1] is above 100 µM.

Consider `COc1cc2c(cc1OS(N)(=O)=O)CCN(S(=O)(=O)c1ccccc1OC)C2=O` [compound 204, 7-Methoxy-2-(2-methoxy-benzenesulfonyl)-6-O-sulfamoyl-3,4-dihydro-2H-isoquinolin-1-one], for which the GI50 under setting [3] is above 100 µM.

In the case of `COc1cccc(S(=O)(=O)N2CCc3cc(OS(N)(=O)=O)c(OC)cc3C2=O)c1` [compound 205, 7-Methoxy-2-(3-methoxy-benzenesulfonyl)-6-O-sulfamoyl-3,4-dihydro-2H-isoquinolin-1-one], the GI50 under setting [3] is above 100 µM. Same read-out and setting: then `COc1ccc(S(=O)(=O)N2CCc3cc(OS(N)(=O)=O)c(OC)cc3C2=O)cc1` [compound 206, 7-Methoxy-2-(4-methoxy-benzenesulfonyl)-6-O-sulfamoyl-3,4-dihydro-2H-isoquinolin-1-one], with above 100 µM.
